Data reported in patent publication US8952024B2, “Herbicidal pyrimidone derivatives” (E I du Pont de Nemours and Company, priority 2009, dated 2015).

Tests used:
Assay in all cases: Test D pre-/postemergence plant response
Type in all cases: in vivo
[1] = test system: black mustard (Brassica nigra)
Summary of the method: (§1)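 Pre + post applications; loam/sand soil; solvent + surfactant vehicle; post-em plants 1- to 4-leaf (2–18 cm); greenhouse 14–21 d; visual score 0 (none) to 100 (full control) vs untreated.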

[2] = test system: sowthistle (common sowthistle, Sonchus oleraceous)
Summary of the method: as §1

[3] = test system: mallow (common mallow, Malva sylvestris)
Summary of the method: as §1

[4] = test system: barnyardgrass (Echinochloa crus-galli)
Summary of the method: as §1

[5] = test system: nutsedge (purple nutsedge, Cyperus rotundus)
Summary of the method: as §1

[6] = test system: goosegrass (Eleusine indica)
Summary of the method: as §1

[7] = test system: johnsongrass (Sorghum halepense)
Summary of the method: as §1

[8] = test system: field bindweed (Convolvulus arvensis)
Summary of the method: as §1

[9] = test system: chickweed (common chickweed, Stellaria media); details: Postemergence
Summary of the method: as §1

[10] = test system: large crabgrass (Digitaria sanguinalis)
Summary of the method: as §1

[11] = test system: itchgrass (Rottboellia cochinchinensis)
Summary of the method: as §1

[12] = test system: Surinam grass (Brachiaria decumbens)
Summary of the method: as §1

kochia (Kochia scoparia) = test system: kochia (Kochia scoparia)
Summary of the method: as §1

[13] = test system: morningglory (pitted morningglory, Ipomoea lacunosa)
Summary of the method: as §1

[14] = test system: bluegrass (annual bluegrass, Poa annua)
Summary of the method: as §1

[15] = test system: signalgrass (broadleaf signalgrass, Brachiaria platyphylla)
Summary of the method: as §1

[16] = test system: green foxtail (Setaria viridis)
Summary of the method: as §1

[17] = test system: guineagrass (Panicum maximum)
Summary of the method: as §1

[18] = Postemergence, 31 g ai/ha, scale 0 to 100 (0 no effect, 100 complete control)
[19] = Postemergence, 62 g ai/ha, scale 0 to 100 (0 no effect, 100 complete control)
[20] = Postemergence, 125 g ai/ha, scale 0 to 100 (0 no effect, 100 complete control)
[21] = Postemergence, 16 g ai/ha, scale 0 to 100
[22] = Preemergence, 16 g ai/ha, scale 0 to 100, 0 no effect, 100 complete control
[23] = Preemergence, 31 g ai/ha, scale 0 to 100 (0 no effect, 100 complete control)
[24] = Preemergence, 62 g ai/ha, scale 0 to 100
[25] = Preemergence, 125 g ai/ha, scale 0 to 100
[26] = Postemergence, 31 g ai/ha, scale 0 to 100

COCCn1c(-c2cccc(C)c2)ncc(C(=O)C2=C(O)C3CCC(C3)C2=O)c1=O (stereo not shown) [Compound 233]
Plant response rating, Black Mustard [1, 18]: 50
Plant response rating, Black Mustard [1, 19]: 50
Plant response rating, Black Mustard [1, 20]: 100
Plant response rating, Black Mustard [1, 21]: 20
Plant response rating, Black Mustard [1, 22]: 0
Plant response rating, Black Mustard [1, 23]: 0
Plant response rating, Black Mustard [1, 24]: 20
Plant response rating, Black Mustard [1, 25]: 65
Plant response rating, Sowthistle [2, 26]: 100
Plant response rating, Sowthistle [2, 20]: 100
Plant response rating, Sowthistle [2, 21]: 90
Plant response rating, Sowthistle [2, 22]: 0
Plant response rating, Sowthistle [2, 23]: 50
Plant response rating, Sowthistle [2, 25]: 100
Plant response rating, Mallow [3, 26]: 0
Plant response rating, Mallow [3, 19]: 0
Plant response rating, Mallow [3, 20]: 0
Plant response rating, Mallow [3, 21]: 0
Plant response rating, Mallow [3, 22]: 0
Plant response rating, Mallow [3, 23]: 0
Plant response rating, Mallow [3, 24]: 0
Plant response rating, Mallow [3, 25]: 60
Plant response rating, Barnyardgrass [4, 18]: 75
Plant response rating, Barnyardgrass [4, 19]: 85
Plant response rating, Barnyardgrass [4, 20]: 85
Plant response rating, Barnyardgrass [4, 21]: 65
Plant response rating, Barnyardgrass [4, 22]: 0
Plant response rating, Barnyardgrass [4, 23]: 0
Plant response rating, Barnyardgrass [4, 24]: 5
Plant response rating, Barnyardgrass [4, 25]: 40
Plant response rating, Nutsedge, Purple [5, 26]: 0
Plant response rating, Nutsedge, Purple [5, 19]: 0
Plant response rating, Nutsedge, Purple [5, 20]: 0
Plant response rating, Nutsedge, Purple [5, 21]: 0
Plant response rating, Nutsedge, Purple [5, 22]: 0
Plant response rating, Nutsedge, Purple [5, 23]: 0
Plant response rating, Nutsedge, Purple [5, 24]: 0
Plant response rating, Nutsedge, Purple [5, 25]: 5
Plant response rating, Goosegrass [6, 26]: 50
Plant response rating, Goosegrass [6, 19]: 60
Plant response rating, Goosegrass [6, 20]: 65
Plant response rating, Goosegrass [6, 21]: 40
Plant response rating, Goosegrass [6, 22]: 70
Plant response rating, Goosegrass [6, 23]: 95
Plant response rating, Goosegrass [6, 24]: 98
Plant response rating, Goosegrass [6, 25]: 100
Plant response rating, Johnsongrass [7, 26]: 35
Plant response rating, Johnsongrass [7, 19]: 50
Plant response rating, Johnsongrass [7, 20]: 50
Plant response rating, Johnsongrass [7, 21]: 20
Plant response rating, Johnsongrass [7, 22]: 0
Plant response rating, Johnsongrass [7, 23]: 0
Plant response rating, Johnsongrass [7, 24]: 20
Plant response rating, Johnsongrass [7, 25]: 65
Plant response rating, Field Bindweed [8, 26]: 50
Plant response rating, Field Bindweed [8, 19]: 50
Plant response rating, Field Bindweed [8, 20]: 70
Plant response rating, Field Bindweed [8, 21]: 10
Plant response rating, Field Bindweed [8, 22]: 0
Plant response rating, Field Bindweed [8, 23]: 0
Plant response rating, Field Bindweed [8, 24]: 85
Plant response rating, Field Bindweed [8, 25]: 85
Plant response rating, Chickweed ([9]; 31 g ai/ha, scale 0 to 100): 50
Plant response rating, Chickweed ([9]; 125 g ai/ha, scale 0 to 100 (0 no effect, 100 complete control)): 60
Plant response rating, Crabgrass, Large [10, 26]: 40
Plant response rating, Crabgrass, Large [10, 19]: 50
Plant response rating, Crabgrass, Large [10, 20]: 60
Plant response rating, Crabgrass, Large [10, 21]: 20
Plant response rating, Crabgrass, Large [10, 22]: 0
Plant response rating, Crabgrass, Large [10, 23]: 5
Plant response rating, Crabgrass, Large [10, 24]: 25
Plant response rating, Crabgrass, Large [10, 25]: 90
Plant response rating, Itchgrass [11, 26]: 65
Plant response rating, Itchgrass [11, 19]: 70
Plant response rating, Itchgrass [11, 20]: 80
Plant response rating, Itchgrass [11, 21]: 50
Plant response rating, Itchgrass [11, 22]: 0
Plant response rating, Itchgrass [11, 23]: 0
Plant response rating, Itchgrass [11, 24]: 0
Plant response rating, Itchgrass [11, 25]: 20
Plant response rating, Surinam Grass [12, 19]: 50
Plant response rating, Surinam Grass [12, 20]: 60
Plant response rating, Surinam Grass [12, 21]: 30
Plant response rating, Surinam Grass [12, 22]: 0
Plant response rating, Surinam Grass [12, 23]: 5
Plant response rating, Surinam Grass [12, 25]: 100
Plant response rating, Kochia (kochia (Kochia scoparia); [26]): 20
Plant response rating, Kochia (kochia (Kochia scoparia); [19]): 30
Plant response rating, Kochia (kochia (Kochia scoparia); [20]): 35
Plant response rating, Kochia (kochia (Kochia scoparia); [21]): 10
Plant response rating, Kochia (kochia (Kochia scoparia); [22]): 0
Plant response rating, Kochia (kochia (Kochia scoparia); [23]): 0
Plant response rating, Kochia (kochia (Kochia scoparia); [24]): 20
Plant response rating, Kochia (kochia (Kochia scoparia); [25]): 80
Plant response rating, Morningglory [13, 26]: 60
Plant response rating, Morningglory [13, 19]: 70
Plant response rating, Morningglory [13, 20]: 70
Plant response rating, Morningglory [13, 21]: 50
Plant response rating, Morningglory [13, 22]: 0
Plant response rating, Morningglory [13, 23]: 80
Plant response rating, Morningglory [13, 24]: 95
Plant response rating, Morningglory [13, 25]: 95
Plant response rating, Bluegrass [14, 18]: 0
Plant response rating, Bluegrass [14, 19]: 0
Plant response rating, Bluegrass [14, 20]: 0
Plant response rating, Bluegrass [14, 21]: 0
Plant response rating, Bluegrass [14, 22]: 0
Plant response rating, Bluegrass [14, 23]: 0
Plant response rating, Bluegrass [14, 24]: 25
Plant response rating, Bluegrass [14, 25]: 40
Plant response rating, Signalgrass [15, 26]: 5
Plant response rating, Signalgrass [15, 19]: 25
Plant response rating, Signalgrass [15, 20]: 35
Plant response rating, Signalgrass [15, 21]: 0
Plant response rating, Signalgrass [15, 22]: 0
Plant response rating, Signalgrass [15, 23]: 0
Plant response rating, Signalgrass [15, 25]: 35
Plant response rating, Foxtail, Green [16, 26]: 10
Plant response rating, Foxtail, Green [16, 19]: 30
Plant response rating, Foxtail, Green [16, 20]: 35
Plant response rating, Foxtail, Green [16, 21]: 5
Plant response rating, Foxtail, Green [16, 22]: 0
Plant response rating, Foxtail, Green [16, 23]: 0
Plant response rating, Foxtail, Green [16, 24]: 0
Plant response rating, Foxtail, Green [16, 25]: 0
Plant response rating, Guineagrass [17, 26]: 30
Plant response rating, Guineagrass [17, 19]: 40
Plant response rating, Guineagrass [17, 20]: 50
Plant response rating, Guineagrass [17, 21]: 20
Plant response rating, Guineagrass [17, 22]: 0
Plant response rating, Guineagrass [17, 23]: 0
Plant response rating, Guineagrass [17, 24]: 0
Plant response rating, Guineagrass [17, 25]: 0
